{"source": "patent US4507487A", "about": "“Chemical compounds” (Bristol-Myers Company, priority 1983, dated 1985)", "key": {"[1]": {"system": "Penicillinsensitive S. aureus", "experiment": "MIC, two-fold serial agar dilution in Mueller-Hinton agar, group (G+)-Ia", "format": "cell-based", "conditions": "Staphylococcus aureus; (G+)-Ia, penicillin-sensitive S. aureus (5 strains); read-out: Geometric Mean of MIC", "method": "(§1) In the primary evaluation of the compounds of this invention, the Minimum Inhibitory Concentrations (MIC's) of the compounds were determined by the two-fold serial agar dilution method in Mueller-Hinton agar against 32 strains of test organisms in six groups."}, "[2]": {"system": "Penicillinresistant S. aureus", "experiment": "MIC, two-fold serial agar dilution in Mueller-Hinton agar, group (G+)-Ib", "format": "cell-based", "conditions": "Staphylococcus aureus, read-out: Geometric Mean of MIC", "method": "as §1\n(G+)Ib: Penicillinresistant S. aureus (5 strains)"}, "[3]": {"system": "Cephalothinsensitive E. coli, Kl. pneumoniae and Pr. mirabilis", "experiment": "MIC, two-fold serial agar dilution in Mueller-Hinton agar, group (G-)-Ia", "format": "cell-based", "conditions": "(G-)-Ia, cephalothin-sensitive E. coli (2), Kl. pneumoniae (1), Pr. mirabilis (2 strains); read-out: Geometric Mean of MIC", "method": "as §1\n(G-)Ia: Cephalothinsensitive E. coli (2 strains), Kl. pneumoniae (1\nstrain) and Pr. mirabilis (2 strains)"}, "[4]": {"system": "Cephalothinresistant E. coli and Kl. pneumoniae", "experiment": "MIC, two-fold serial agar dilution in Mueller-Hinton agar, group (G-)-Ib", "format": "cell-based", "conditions": "read-out: Geometric Mean of MIC", "method": "as §1\n(G-)Ib: Cephalothinresistant E. coli (3 strains) and Kl. pneumoniae (3"}, "[5]": {"system": "M. morganii, Ent. cloacae and Ser. marcescens", "experiment": "MIC, two-fold serial agar dilution in Mueller-Hinton agar, group (G-)-II", "format": "cell-based", "conditions": "read-out: Geometric Mean of MIC", "method": "as §1\n(G-)II: M. morganii (1 strain), Ent. cloacae (2 strains) and Ser."}, "[6]": {"system": "Ps. aeruginosa", "experiment": "MIC, two-fold serial agar dilution in Mueller-Hinton agar, group (G-)-III", "format": "cell-based", "conditions": "Pseudomonas aeruginosa, Ps. aeruginosa (6 strains), read-out: Geometric Mean of MIC", "method": "as §1"}, "[7]": {"system": "E. coli A15164", "experiment": "MIC against specific test organism", "format": "cell-based", "conditions": "Escherichia coli; E. coli A15164, cephalothin-resistant strain; read-out: Minimum Inhibitory Concentration", "method": "as §1\n(§2) The test method was as described for Table 1."}, "[8]": {"system": "E. coli Juhl", "experiment": "MIC against specific test organism", "format": "cell-based", "conditions": "Escherichia coli, read-out: Minimum Inhibitory Concentration", "method": "as §1, §2"}, "[9]": {"system": "Ent. cloacae A9656", "experiment": "MIC against specific test organism", "format": "cell-based", "conditions": "Enterobacter cloacae, read-out: Minimum Inhibitory Concentration", "method": "as §1, §2"}, "[10]": {"system": "K. pneumoniae A9867", "experiment": "MIC against specific test organism", "format": "cell-based", "conditions": "Klebsiella pneumoniae", "method": "as §1, §2"}, "[11]": {"system": "K. pneumoniae D11", "experiment": "MIC against specific test organism", "format": "cell-based", "conditions": "Klebsiella pneumoniae, read-out: Minimum Inhibitory Concentration", "method": "as §1, §2"}, "[12]": {"system": "M. morganii A9553", "experiment": "MIC against specific test organism", "format": "cell-based", "conditions": "Morganella morganii, read-out: Minimum Inhibitory Concentration", "method": "as §1, §2"}, "[13]": {"system": "Pr. mirabilis A9554", "experiment": "MIC against specific test organism", "format": "cell-based", "conditions": "Proteus mirabilis, read-out: Minimum Inhibitory Concentration", "method": "as §1, §2"}, "[14]": {"system": "Ps. aeruginosa A15150", "experiment": "MIC against specific test organism", "format": "cell-based", "conditions": "Pseudomonas aeruginosa, read-out: Minimum Inhibitory Concentration", "method": "as §1, §2"}, "[15]": {"system": "Ps. aeruginosa A20717", "experiment": "MIC against specific test organism", "format": "cell-based", "conditions": "Pseudomonas aeruginosa, read-out: Minimum Inhibitory Concentration", "method": "as §1, §2"}, "[16]": {"system": "Ps. aeruginosa A9843", "experiment": "MIC against specific test organism", "format": "cell-based", "conditions": "Pseudomonas aeruginosa, read-out: Minimum Inhibitory Concentration", "method": "as §1, §2"}, "[17]": {"system": "S. aureus BX-1633-2", "experiment": "MIC against specific test organism", "format": "cell-based", "conditions": "Staphylococcus aureus, BX16332; S. aureus BX-1633-2, penicillin-resistant strain; read-out: Minimum Inhibitory Concentration", "method": "as §1, §2"}, "[18]": {"system": "S. aureus Smith", "experiment": "MIC against specific test organism", "format": "cell-based", "conditions": "Staphylococcus aureus, read-out: Minimum Inhibitory Concentration", "method": "as §1, §2"}, "[19]": {"system": "Ser. marcescens A20019", "experiment": "MIC against specific test organism", "format": "cell-based", "conditions": "Serratia marcescens, read-out: Minimum Inhibitory Concentration", "method": "as §1, §2"}, "[20]": {"experiment": "Mouse blood levels after single intramuscular injection", "format": "in vivo, mice", "conditions": "for concentration at 10 min / concentration at 20 min / concentration at 0.5 h / concentration at 40 min / concentration at 50 min / concentration at 1 h / concentration at 1.5 h: read-out: Mouse Blood Level; for concentration at 0.5 h: 30 minutes; for concentration at 1 h: 60 minutes; for concentration at 1.5 h: 90 minutes", "method": "The absorption of some of the preferred compounds were determined in mice following a single intramuscular injection of the test compound (dissolved in 0.1M phosphate buffer; pH 7) at a dosage of 10, 20 or 40 mg/kg. Blood samples were collected from the orbital sinuses into heparinized capillary tubes and assayed in Nutrient Agar (pH 6.6) using E. coli Ess-22-31 as the test organism. The blood levels at various time intervals, the half-life values (t1/2) and the areas under the curve (AUC) are shown in Table 3."}}, "note": "Where two headings read alike, the source gives them in different places."}
{"smiles": "CSc1scc[n+]1CC1=C(C(=O)[O-])N2C(=O)C(NC(=O)/C(=N\\OC(C)(C)C(=O)O)c3csc(N)n3)[C@H]2SC1", "note": "(some centres unmarked) [Example 1, 7-[(Z)-2-(2-Aminothiazol-4-yl)-2-(2-carboxyprop-2-oxyimino)acetamido]-3-(2-methylthiothiazolio)methyl-3-cephem-4-carboxylate]", "values": [{"measurement": "MIC", "setting": "[1]", "value": 1.2, "unit": "µg/mL"}, {"measurement": "MIC", "setting": "[2]", "value": 3.6, "unit": "µg/mL"}, {"measurement": "MIC", "setting": "[3]", "value": 0.038, "unit": "µg/mL"}, {"measurement": "MIC", "setting": "[4]", "value": 0.69, "unit": "µg/mL"}, {"measurement": "MIC", "setting": "[5]; (G-)-II, M. morganii (1), Ent. cloacae (2), Ser. marcescens (2 strains)", "value": 0.24, "unit": "µg/mL"}, {"measurement": "MIC", "setting": "[6]", "value": 1.4, "unit": "µg/mL"}, {"measurement": "MIC", "setting": "[7]", "value": 0.8, "unit": "µg/mL"}, {"measurement": "MIC", "setting": "[8]", "value": 0.1, "unit": "µg/mL"}, {"measurement": "MIC", "setting": "[9]", "value": 0.1, "unit": "µg/mL"}, {"measurement": "MIC", "setting": "[10]; A9867, read-out: Minimum Inhibitory Concentration", "value": 1.6, "unit": "µg/mL"}, {"measurement": "MIC", "setting": "[11]", "value": 0.1, "unit": "µg/mL"}, {"measurement": "MIC", "setting": "[12]", "value": 0.1, "unit": "µg/mL"}, {"measurement": "MIC", "setting": "[13]", "value": 0.05, "unit": "µg/mL"}, {"measurement": "MIC", "setting": "[14]", "value": 0.8, "unit": "µg/mL"}, {"measurement": "MIC", "setting": "[15]", "value": 3.1, "unit": "µg/mL"}, {"measurement": "MIC", "setting": "[16]", "value": 1.6, "unit": "µg/mL"}, {"measurement": "MIC", "setting": "[17]", "value": 3.1, "unit": "µg/mL"}, {"measurement": "MIC", "setting": "[18]", "value": 1.6, "unit": "µg/mL"}, {"measurement": "MIC", "setting": "[19]", "value": 0.1, "unit": "µg/mL"}, {"measurement": "AUC", "setting": "[20]; 10 mg/kg im", "value": 5000, "unit": "ng·h/mL"}, {"measurement": "half-life", "setting": "[20]; 10 mg/kg im", "value": 15, "unit": "min"}, {"measurement": "concentration at 10 min", "setting": "[20]; 10 mg/kg im", "value": 12000, "unit": "ng/mL"}, {"measurement": "concentration at 20 min", "setting": "[20]; 10 mg/kg im", "value": 7400, "unit": "ng/mL"}, {"measurement": "concentration at 0.5 h", "setting": "[20]; 10 mg/kg im", "value": 4700, "unit": "ng/mL"}, {"measurement": "concentration at 40 min", "setting": "[20]; 10 mg/kg im", "value": "< 3000", "unit": "ng/mL"}, {"measurement": "AUC", "setting": "[20]; 20 mg/kg im", "value": 16000, "unit": "ng·h/mL"}, {"measurement": "half-life", "setting": "[20]; 20 mg/kg im", "value": 14, "unit": "min"}, {"measurement": "concentration at 10 min", "setting": "[20]; 20 mg/kg im", "value": 33000, "unit": "ng/mL"}, {"measurement": "concentration at 20 min", "setting": "[20]; 20 mg/kg im", "value": 24000, "unit": "ng/mL"}, {"measurement": "concentration at 0.5 h", "setting": "[20]; 20 mg/kg im", "value": 18000, "unit": "ng/mL"}, {"measurement": "concentration at 40 min", "setting": "[20]; 20 mg/kg im", "value": 9400, "unit": "ng/mL"}, {"measurement": "concentration at 50 min", "setting": "[20]; 20 mg/kg im", "value": 6700, "unit": "ng/mL"}, {"measurement": "concentration at 1 h", "setting": "[20]; 20 mg/kg im", "value": 3500, "unit": "ng/mL"}, {"measurement": "concentration at 1.5 h", "setting": "[20]; 20 mg/kg im", "value": "< 3000", "unit": "ng/mL"}, {"measurement": "AUC", "setting": "[20]; 40 mg/kg im", "value": 25000, "unit": "ng·h/mL"}, {"measurement": "half-life", "setting": "[20]; 40 mg/kg im", "value": 13, "unit": "min"}, {"measurement": "concentration at 10 min", "setting": "[20]; 40 mg/kg im", "value": 51000, "unit": "ng/mL"}, {"measurement": "concentration at 20 min", "setting": "[20]; 40 mg/kg im", "value": 40000, "unit": "ng/mL"}, {"measurement": "concentration at 0.5 h", "setting": "[20]; 40 mg/kg im", "value": 29000, "unit": "ng/mL"}, {"measurement": "concentration at 40 min", "setting": "[20]; 40 mg/kg im", "value": 15000, "unit": "ng/mL"}, {"measurement": "concentration at 50 min", "setting": "[20]; 40 mg/kg im", "value": 9000, "unit": "ng/mL"}, {"measurement": "concentration at 1 h", "setting": "[20]; 40 mg/kg im", "value": 4600, "unit": "ng/mL"}, {"measurement": "concentration at 1.5 h", "setting": "[20]; 40 mg/kg im", "value": "< 3000", "unit": "ng/mL"}]}
{"smiles": "CCO/N=C(\\C(=O)NC1C(=O)N2C(C(=O)[O-])=C(C[n+]3ccsc3SC)CS[C@H]12)c1csc(N)n1", "note": "(some centres unmarked) [Example 4, 7-[(Z)-2-(2-Aminothiazol-4-yl)-2-(ethoxyimino)acetamido]-3-(2-methylthiothiazolio)methyl-3-cephem-4-carboxylate]", "values": [{"measurement": "MIC", "setting": "[1]", "value": 0.35, "unit": "µg/mL"}, {"measurement": "MIC", "setting": "[2]", "value": 0.61, "unit": "µg/mL"}, {"measurement": "MIC", "setting": "[3]", "value": 0.076, "unit": "µg/mL"}, {"measurement": "MIC", "setting": "[4]", "value": 0.32, "unit": "µg/mL"}, {"measurement": "MIC", "setting": "[5]", "value": 0.69, "unit": "µg/mL"}, {"measurement": "MIC", "setting": "[6]", "value": 5.6, "unit": "µg/mL"}, {"measurement": "MIC", "setting": "[7]", "value": 0.2, "unit": "µg/mL"}, {"measurement": "MIC", "setting": "[8]", "value": 0.1, "unit": "µg/mL"}, {"measurement": "MIC", "setting": "[9]", "value": 0.2, "unit": "µg/mL"}, {"measurement": "MIC", "setting": "[10]; K. pneumoniae A9867, cephalothin-resistant strain, read-out: Minimum Inhibitory Concentration", "value": 1.6, "unit": "µg/mL"}, {"measurement": "MIC", "setting": "[11]", "value": 0.1, "unit": "µg/mL"}, {"measurement": "MIC", "setting": "[12]", "value": 0.4, "unit": "µg/mL"}, {"measurement": "MIC", "setting": "[13]", "value": 0.2, "unit": "µg/mL"}, {"measurement": "MIC", "setting": "[14]", "value": 3.1, "unit": "µg/mL"}, {"measurement": "MIC", "setting": "[15]", "value": 12.5, "unit": "µg/mL"}, {"measurement": "MIC", "setting": "[16]", "value": 12.5, "unit": "µg/mL"}, {"measurement": "MIC", "setting": "[17]", "value": 0.4, "unit": "µg/mL"}, {"measurement": "MIC", "setting": "[18]", "value": 0.4, "unit": "µg/mL"}, {"measurement": "MIC", "setting": "[19]", "value": 0.1, "unit": "µg/mL"}]}
